Values quoted from earlier work, collected in patent US11701355B2, “Levosimendan for treating pulmonary hypertension with heart failure with preserved ejection fraction (PH-HFpEF)” (Tenax Therapeutics, Inc., priority 2019, dated 2023).

Experiments:
[1] = system: phosphodiesterase-3 (PDE3); conditions: in vitro; cited from earlier work
[2] = system: PDE4; conditions: in vitro; cited from earlier work
[3] = system: whole cardiomyocytes and isolated contractile apparatus preparations; conditions: cited from earlier work
[4] = heart failure subjects; cited from earlier work
[5] = system: patients with PH-HFpEF; conditions: in vivo; cited from earlier work
[6] = system: patients with left heart disease; conditions: in vivo; cited from earlier work
[7] = system: PH-HFpEF patients; conditions: acute; cited from earlier work
[8] = system: PH-HFpEF patients; conditions: after 12 weeks, 52 patients; cited from earlier work
[9] = system: patients with HFpEF; conditions: long term treatment, 216 patients; cited from earlier work
[10] = system: HFpEF patients; conditions: inhaled 3 times a day for 4 weeks; cited from earlier work
[11] = system: HFpEF patients; conditions: in vivo; cited from earlier work
[12] = system: HFpEF patients; conditions: in vivo; cited from earlier work; remark: listed apart in the source

Compound: CC(=O)Nc1ccc(C2=NNC(=O)C[C@H]2C)cc1 [OR-1896, (R)-N-(4-(4-methyl-6-oxo-1,4,5,6-tetrahydropyridazin-3-yl)phenyl) acetamide]
- potency in the inhibition of PDE3 compared with levosimendan [1]: profoundly less potent
- potency in the inhibition of PDE4 compared with levosimendan [2]: profoundly less potent
- inotropic effects compared with levosimendan [3]: equipotent to levosimendan
- half-life [4]: 70 to 80 h

Compound: COc1ccccc1Oc1c(NS(=O)(=O)c2ccc(C(C)(C)C)cc2)nc(-c2ncccn2)nc1OCCO [bosentan]
- clinical outcomes compared with placebo [5]: worse clinical outcomes
- six minute walk test or echocardiographic evaluation of pulmonary hypertension [5]: no improvements

Compound: CCCNS(=O)(=O)Nc1ncnc(OCCOc2ncc(Br)cn2)c1-c1ccc(Br)cc1 [macitentan]
- hemodynamic parameters (pulmonary vascular resistance, mean pulmonary arterial pressure, pulmonary artery wedge pressure) [6]: no change

Compound: COC(=O)N(C)c1c(N)nc(-c2nn(Cc3ccccc3F)c3ncccc23)nc1N [riociguat]
- TPG or pulmonary vascular resistance [7]: no change
- primary outcome, mean pulmonary arterial pressure [7]: not achieved

Compound: CCCc1nn(C)c2c(=O)[nH]c(-c3cc(S(=O)(=O)N4CCN(C)CC4)ccc3OCC)nc12 [sildenafil]
- mPAP [8]: no change
- six-minute walk time, clinical status, or quality of life [9]: failed to improve

Compound: O=NO [sodium nitrite]
- primary endpoint of peak oxygen consumption during cardiopulmonary exercise; secondary endpoints [10]: unable to demonstrate any improvement

Compound: COC(=O)Nc1c(N)nc(-c2nn(Cc3ccccc3F)c3ncc(F)cc23)nc1N [vericiguat]
- primary endpoints [11]: no significant changes

Compound: sacubitril/valsartan
- reduction in the primary endpoint [12]: not statistically significant
